ChEMBL document CHEMBL3875176, “Synthesis and evaluation of in vitro antiproliferative activity of new ethyl 3-(arylethynyl)quinoxaline-2-carboxylate and pyrido[4,3-b]quinoxalin-1(2H)-one derivatives” (Eur J Med Chem, 2016)

Assays:
[1] = Antiproliferative activity against human A549 cells after 72 hrs by MTT assay; assay type: functional, cell-based; details: A549, 72 h
[2] = Antiproliferative activity against human U87MG cells after 72 hrs by MTT assay; assay type: functional, cell-based, U-87MG ATCC; details: U-87 MG

Row | Structure (SMILES) | IC50 [1] [µM] | IC50 [2] [µM]
1 | CCOC(=O)c1nc2ccccc2nc1C#CC1CCCC1 | 11.2 | 11.4
2 | Cc1ccc(-c2cc3nc4ccccc4nc3c(=O)n2-c2ccccc2)cc1 | 39.6 | 23.7
3 | CCOC(=O)c1nc2ccccc2nc1C#Cc1cccc(C)c1 | 6.5 | 5.5
4 | CCOC(=O)c1nc2ccccc2nc1C#Cc1ccccc1C | 27 | 31.6
5 | CCOC(=O)c1nc2ccccc2nc1C#Cc1ccccc1 | 3.3 | 3.3
6 | CCOC(=O)c1nc2ccccc2nc1C#Cc1ccccc1OC | 7.9 | 11.6
7 | O=c1c2nc3ccccc3nc2cc(-c2ccccc2)n1-c1ccc(Cl)cc1 | 43 | 34.6
8 | CCOC(=O)c1nc2ccccc2nc1C#Cc1ccc(C)cc1 | 3.3 | 3.3
9 | CCOC(=O)c1nc2ccccc2nc1C#CC1CC1 | 7.6 | 6.2
10 | CCOC(=O)c1nc2ccccc2nc1C#Cc1cccc(F)c1 | 3 | 1.9
11 | O=c1c2nc3ccccc3nc2cc(-c2ccccc2)n1-c1ccccc1 | 46.4 | 21.3
